Laboratory results: ChEMBL document CHEMBL4393686, “InCl3 mediated heteroarylation of indoles and their derivatization via CH activation strategy: Discovery of 2-(1H-indol-3-yl)-quinoxaline derivatives as a new class of PDE4B selective inhibitors for arthritis and/or multiple sclerosis” (Eur J Med Chem, 2019)
Calls of active or inactive are those of the source. The rule behind the calls is not given here.

Columns and labels:
[1] = target: 3',5'-cyclic-AMP phosphodiesterase 7B (Homo sapiens) (UniProt Q9NP56); assay: Inhibition of recombinant N-terminal GST tagged and C-terminal His-tagged human PDE7B (109-ens aa) expressed in Sf9 cells using FAM-cAMP as substrate at 0.1xIC50 incubated for 60 mins by fluorescence plate reader analysis
Chain of 3',5'-cyclic-AMP phosphodiesterase 7B (Homo sapiens) (Q9NP56 whole entry): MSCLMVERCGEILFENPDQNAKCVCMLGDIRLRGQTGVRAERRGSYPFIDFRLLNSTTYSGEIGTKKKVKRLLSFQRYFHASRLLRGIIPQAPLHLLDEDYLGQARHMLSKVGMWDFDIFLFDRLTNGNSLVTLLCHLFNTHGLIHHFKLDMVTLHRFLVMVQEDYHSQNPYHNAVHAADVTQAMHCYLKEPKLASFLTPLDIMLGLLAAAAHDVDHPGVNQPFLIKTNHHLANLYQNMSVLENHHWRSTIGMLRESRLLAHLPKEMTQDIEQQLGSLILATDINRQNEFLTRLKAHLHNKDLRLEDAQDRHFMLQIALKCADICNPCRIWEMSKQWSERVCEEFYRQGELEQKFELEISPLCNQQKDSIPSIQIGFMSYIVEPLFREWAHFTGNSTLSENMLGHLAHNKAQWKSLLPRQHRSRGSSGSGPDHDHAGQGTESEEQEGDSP

[2] = target: High affinity cAMP-specific and IBMX-insensitive 3',5'-cyclic phosphodiesterase 8A (Homo sapiens) (UniProt O60658); assay: Inhibition of recombinant N-terminal GST-tagged full length human PDE8A1 expressed in Sf9 cells using FAM-cAMP as substrate at 0.1xIC50 incubated for 60 mins by fluorescence plate reader analysis
Chain of High affinity cAMP-specific and IBMX-insensitive 3',5'-cyclic phosphodiesterase 8A (Homo sapiens) (O60658 whole entry): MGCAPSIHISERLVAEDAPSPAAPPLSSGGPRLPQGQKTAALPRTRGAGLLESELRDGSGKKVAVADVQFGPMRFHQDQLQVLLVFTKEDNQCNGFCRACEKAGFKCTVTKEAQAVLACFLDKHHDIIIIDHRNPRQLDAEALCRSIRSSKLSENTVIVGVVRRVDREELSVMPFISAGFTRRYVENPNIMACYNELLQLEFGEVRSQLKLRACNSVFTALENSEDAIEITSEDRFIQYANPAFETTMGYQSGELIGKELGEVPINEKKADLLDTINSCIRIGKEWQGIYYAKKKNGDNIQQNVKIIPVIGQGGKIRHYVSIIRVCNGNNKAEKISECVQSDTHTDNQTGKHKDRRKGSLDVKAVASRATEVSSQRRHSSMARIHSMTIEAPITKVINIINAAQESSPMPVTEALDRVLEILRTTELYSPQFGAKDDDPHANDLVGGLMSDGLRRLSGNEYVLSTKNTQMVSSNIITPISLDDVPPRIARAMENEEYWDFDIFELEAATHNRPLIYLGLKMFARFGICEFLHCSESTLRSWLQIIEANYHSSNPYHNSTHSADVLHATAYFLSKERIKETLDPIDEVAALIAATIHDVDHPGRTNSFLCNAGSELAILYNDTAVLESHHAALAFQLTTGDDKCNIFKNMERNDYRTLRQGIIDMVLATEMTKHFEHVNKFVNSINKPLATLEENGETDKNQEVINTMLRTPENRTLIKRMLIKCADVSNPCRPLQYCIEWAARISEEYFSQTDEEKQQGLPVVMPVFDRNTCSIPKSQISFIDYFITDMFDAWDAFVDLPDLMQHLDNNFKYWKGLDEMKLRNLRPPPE

[3] = target: 3',5'-cyclic-AMP phosphodiesterase 7B (Homo sapiens) (UniProt Q9NP56); assay: Inhibition of recombinant N-terminal GST tagged and C-terminal His-tagged human PDE7B (109-ens aa) expressed in Sf9 cells using FAM-cAMP as substrate at 1xIC50 incubated for 60 mins by fluorescence plate reader analysis
[4] = target: High affinity cAMP-specific and IBMX-insensitive 3',5'-cyclic phosphodiesterase 8A (Homo sapiens) (UniProt O60658); assay: Inhibition of recombinant N-terminal GST-tagged full length human PDE8A1 expressed in Sf9 cells using FAM-cAMP as substrate at 1xIC50 incubated for 60 mins by fluorescence plate reader analysis
[5] = target: High affinity cAMP-specific and IBMX-insensitive 3',5'-cyclic phosphodiesterase 8A (Homo sapiens) (UniProt O60658); assay: Inhibition of recombinant N-terminal GST-tagged full length human PDE8A1 expressed in Sf9 cells using FAM-cAMP as substrate at 10xIC50 incubated for 60 mins by fluorescence plate reader analysis
[6] = target: Dual specificity calcium/calmodulin-dependent 3',5'-cyclic nucleotide phosphodiesterase 1A (Homo sapiens) (UniProt P54750); assay: Inhibition of recombinant N-terminal GST-tagged full-length human PDE1A1 expressed in Sf9 cells using FAM-cAMP as substrate at 0.1xIC50 incubated for 60 mins by fluorescence plate reader analysis
Chain of Dual specificity calcium/calmodulin-dependent 3',5'-cyclic nucleotide phosphodiesterase 1A (Homo sapiens) (P54750 whole entry): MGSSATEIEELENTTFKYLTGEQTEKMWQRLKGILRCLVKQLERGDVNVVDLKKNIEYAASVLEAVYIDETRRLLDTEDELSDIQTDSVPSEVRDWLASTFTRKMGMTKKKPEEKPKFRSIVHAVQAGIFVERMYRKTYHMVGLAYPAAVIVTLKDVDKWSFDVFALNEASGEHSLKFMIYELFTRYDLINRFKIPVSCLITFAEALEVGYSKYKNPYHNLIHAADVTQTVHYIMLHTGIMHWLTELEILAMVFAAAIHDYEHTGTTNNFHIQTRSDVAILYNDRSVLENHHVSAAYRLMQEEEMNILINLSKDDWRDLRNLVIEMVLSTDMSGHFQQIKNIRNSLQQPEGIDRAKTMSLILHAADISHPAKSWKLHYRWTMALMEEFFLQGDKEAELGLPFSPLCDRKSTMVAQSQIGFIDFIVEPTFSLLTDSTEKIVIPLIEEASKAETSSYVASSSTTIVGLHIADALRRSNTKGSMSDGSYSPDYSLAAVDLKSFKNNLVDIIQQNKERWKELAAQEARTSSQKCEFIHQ

[7] = target: Dual specificity calcium/calmodulin-dependent 3',5'-cyclic nucleotide phosphodiesterase 1B (Homo sapiens) (UniProt Q01064); assay: Inhibition of recombinant N-terminal GST tagged full length human PDE1B expressed in Sf9 cells using FAM-cAMP as substrate at 0.1xIC50 incubated for 60 mins by fluorescence plate reader analysis
Chain of Dual specificity calcium/calmodulin-dependent 3',5'-cyclic nucleotide phosphodiesterase 1B (Homo sapiens) (Q01064 whole entry, the tested form may be a part): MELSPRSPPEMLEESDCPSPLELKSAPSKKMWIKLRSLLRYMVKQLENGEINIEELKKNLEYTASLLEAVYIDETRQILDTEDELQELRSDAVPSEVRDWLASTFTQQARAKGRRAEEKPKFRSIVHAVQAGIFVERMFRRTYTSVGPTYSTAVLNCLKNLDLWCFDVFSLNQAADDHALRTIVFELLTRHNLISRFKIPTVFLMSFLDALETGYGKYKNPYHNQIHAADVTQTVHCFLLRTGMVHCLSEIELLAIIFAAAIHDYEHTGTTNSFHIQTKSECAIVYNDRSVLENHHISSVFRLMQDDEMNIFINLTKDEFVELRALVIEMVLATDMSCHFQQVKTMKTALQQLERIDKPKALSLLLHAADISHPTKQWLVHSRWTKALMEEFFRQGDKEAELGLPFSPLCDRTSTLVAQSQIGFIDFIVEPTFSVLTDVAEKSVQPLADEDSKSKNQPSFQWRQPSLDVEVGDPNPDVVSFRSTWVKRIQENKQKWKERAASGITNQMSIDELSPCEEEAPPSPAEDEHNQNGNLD

[8] = target: Dual specificity calcium/calmodulin-dependent 3',5'-cyclic nucleotide phosphodiesterase 1C (Homo sapiens) (UniProt Q14123); assay: Inhibition of recombinant N-terminal GST tagged human PDE1C (2 to 634 aa) expressed in Sf9 cells at 0.1xIC50 using FAM-cAMP as substrate incubated for 60 mins by fluorescence plate reader analysis
Chain of Dual specificity calcium/calmodulin-dependent 3',5'-cyclic nucleotide phosphodiesterase 1C (Homo sapiens) (Q14123 whole entry, the tested form may be a part): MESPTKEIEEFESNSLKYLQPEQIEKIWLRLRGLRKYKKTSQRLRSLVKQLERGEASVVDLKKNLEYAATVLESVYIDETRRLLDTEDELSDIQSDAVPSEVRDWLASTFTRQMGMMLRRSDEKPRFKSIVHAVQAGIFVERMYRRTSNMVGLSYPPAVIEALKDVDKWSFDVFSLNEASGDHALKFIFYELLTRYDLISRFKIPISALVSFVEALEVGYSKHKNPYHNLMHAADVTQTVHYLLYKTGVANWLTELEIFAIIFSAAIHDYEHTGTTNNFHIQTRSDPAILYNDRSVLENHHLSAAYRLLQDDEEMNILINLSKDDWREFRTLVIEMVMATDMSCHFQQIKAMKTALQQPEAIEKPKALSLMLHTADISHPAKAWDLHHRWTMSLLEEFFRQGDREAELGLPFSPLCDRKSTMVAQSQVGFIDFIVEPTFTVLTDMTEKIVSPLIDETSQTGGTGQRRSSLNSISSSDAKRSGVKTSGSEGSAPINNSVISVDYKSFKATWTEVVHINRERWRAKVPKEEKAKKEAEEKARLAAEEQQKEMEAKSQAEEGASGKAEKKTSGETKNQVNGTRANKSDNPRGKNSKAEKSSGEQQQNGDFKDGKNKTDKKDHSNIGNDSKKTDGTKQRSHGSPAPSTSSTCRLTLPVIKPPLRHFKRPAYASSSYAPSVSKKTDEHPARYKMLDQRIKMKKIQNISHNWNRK

[9] = target: Dual specificity calcium/calmodulin-dependent 3',5'-cyclic nucleotide phosphodiesterase 1A (Homo sapiens) (UniProt P54750); assay: Inhibition of recombinant N-terminal GST-tagged full-length human PDE1A1 expressed in Sf9 cells using FAM-cAMP as substrate at 1xIC50 incubated for 60 mins by fluorescence plate reader analysis
[10] = target: Dual specificity calcium/calmodulin-dependent 3',5'-cyclic nucleotide phosphodiesterase 1B (Homo sapiens) (UniProt Q01064); assay: Inhibition of recombinant N-terminal GST tagged full length human PDE1B expressed in Sf9 cells using FAM-cAMP as substrate at 1xIC50 incubated for 60 mins by fluorescence plate reader analysis
[11] = target: Dual specificity calcium/calmodulin-dependent 3',5'-cyclic nucleotide phosphodiesterase 1C (Homo sapiens) (UniProt Q14123); assay: Inhibition of recombinant N-terminal GST tagged human PDE1C (2 to 634 aa) expressed in Sf9 cells at 1xIC50 using FAM-cAMP as substrate incubated for 60 mins by fluorescence plate reader analysis
[12] = target: Dual specificity calcium/calmodulin-dependent 3',5'-cyclic nucleotide phosphodiesterase 1A (Homo sapiens) (UniProt P54750); assay: Inhibition of recombinant N-terminal GST-tagged full-length human PDE1A1 expressed in Sf9 cells using FAM-cAMP as substrate at 10xIC50 incubated for 60 mins by fluorescence plate reader analysis
[13] = target: Dual specificity calcium/calmodulin-dependent 3',5'-cyclic nucleotide phosphodiesterase 1B (Homo sapiens) (UniProt Q01064); assay: Inhibition of recombinant N-terminal GST tagged full length human PDE1B expressed in Sf9 cells using FAM-cAMP as substrate at 10xIC50 incubated for 60 mins by fluorescence plate reader analysis
[14] = target: Dual specificity calcium/calmodulin-dependent 3',5'-cyclic nucleotide phosphodiesterase 1C (Homo sapiens) (UniProt Q14123); assay: Inhibition of recombinant N-terminal GST tagged human PDE1C (2 to 634 aa) expressed in Sf9 cells at 10xIC50 using FAM-cAMP as substrate incubated for 60 mins by fluorescence plate reader analysis
[15] = target: T1, 3',5'-cyclic-AMP phosphodiesterase 4B (Homo sapiens, UniProt Q07343); assay: Inhibition of recombinant His-tagged human PDE4B expressed in Sf9 cells using cAMP as substrate preincubated with enzyme for 15 mins followed by substrate addition and incubated for 1 hr by PDELight HTS cAMP phosphodiesterase Kit based luminometry
T1 sequence (Q07343 whole entry): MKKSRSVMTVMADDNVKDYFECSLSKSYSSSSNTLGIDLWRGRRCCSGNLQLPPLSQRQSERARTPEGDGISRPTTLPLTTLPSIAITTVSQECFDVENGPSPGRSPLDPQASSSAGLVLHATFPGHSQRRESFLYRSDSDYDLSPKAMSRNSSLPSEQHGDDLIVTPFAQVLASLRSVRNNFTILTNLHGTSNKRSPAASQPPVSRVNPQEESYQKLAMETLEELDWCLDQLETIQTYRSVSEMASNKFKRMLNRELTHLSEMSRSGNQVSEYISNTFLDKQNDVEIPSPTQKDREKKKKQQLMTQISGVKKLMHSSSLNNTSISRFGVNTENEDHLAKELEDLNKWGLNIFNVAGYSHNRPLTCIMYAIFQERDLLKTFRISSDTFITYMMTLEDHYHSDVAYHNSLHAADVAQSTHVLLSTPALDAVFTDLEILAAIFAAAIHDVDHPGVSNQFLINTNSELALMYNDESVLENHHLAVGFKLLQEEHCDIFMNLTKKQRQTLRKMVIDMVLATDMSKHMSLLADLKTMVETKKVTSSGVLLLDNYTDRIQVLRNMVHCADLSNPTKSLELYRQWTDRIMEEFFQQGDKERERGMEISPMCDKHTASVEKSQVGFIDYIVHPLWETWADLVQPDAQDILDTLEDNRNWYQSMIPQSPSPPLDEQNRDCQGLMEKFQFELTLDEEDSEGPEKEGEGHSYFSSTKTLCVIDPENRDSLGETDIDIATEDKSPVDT

[16] = target: T1, 3',5'-cyclic-AMP phosphodiesterase 4B; assay: Inhibition of human recombinant His-tagged PDE4B expressed in Sf9 cells using cAMP as substrate at 10 uM preincubated with enzyme for 15 mins followed by substrate addition and incubated for 1 hr by PDELight HTS cAMP phosphodiesterase Kit based luminometry relative to control
[17] = target: 3',5'-cyclic-AMP phosphodiesterase 4D (Homo sapiens, UniProt Q08499); assay: Inhibition of PDE4D2 (unknown origin) using cAMP as substrate preincubated with enzyme for 15 mins followed by substrate addition and incubated for 1 hr by PDELight HTS cAMP phosphodiesterase Kit based luminometry
Chain of 3',5'-cyclic-AMP phosphodiesterase 4D (Q08499 whole entry): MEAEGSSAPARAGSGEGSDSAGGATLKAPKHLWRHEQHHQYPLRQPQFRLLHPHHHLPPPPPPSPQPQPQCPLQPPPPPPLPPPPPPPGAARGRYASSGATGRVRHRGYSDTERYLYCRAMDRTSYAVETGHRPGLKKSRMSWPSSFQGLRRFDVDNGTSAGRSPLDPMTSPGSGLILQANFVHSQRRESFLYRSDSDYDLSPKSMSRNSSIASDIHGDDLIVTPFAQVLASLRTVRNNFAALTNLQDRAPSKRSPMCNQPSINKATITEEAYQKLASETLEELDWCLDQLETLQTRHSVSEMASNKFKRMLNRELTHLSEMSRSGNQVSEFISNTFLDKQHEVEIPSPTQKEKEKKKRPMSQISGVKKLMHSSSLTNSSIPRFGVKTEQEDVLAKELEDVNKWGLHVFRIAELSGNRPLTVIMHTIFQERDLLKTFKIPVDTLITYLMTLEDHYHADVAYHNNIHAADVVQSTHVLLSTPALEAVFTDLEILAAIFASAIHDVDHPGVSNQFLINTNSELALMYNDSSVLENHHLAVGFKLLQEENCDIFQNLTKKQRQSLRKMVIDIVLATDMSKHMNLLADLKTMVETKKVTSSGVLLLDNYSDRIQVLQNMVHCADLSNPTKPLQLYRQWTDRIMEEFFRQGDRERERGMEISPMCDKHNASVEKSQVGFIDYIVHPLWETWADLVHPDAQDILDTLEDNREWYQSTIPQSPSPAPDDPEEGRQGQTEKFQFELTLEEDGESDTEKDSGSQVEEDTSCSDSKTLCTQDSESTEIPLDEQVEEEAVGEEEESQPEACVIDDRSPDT

Homo sapiens = organism: Homo sapiens; assay: Selectivity index, ratio of IC50 for PDE4D2 (unknown origin) to IC50 for recombinant His-tagged human PDE4B expressed in sf9 cells using cAMP as substrate by PDELight HTS cAMP phosphodiesterase Kit based luminometry
Rattus norvegicus = assay: Antiarthritic activity in complete Freund's adjuvant-induced Wistar rat arthritis model assessed as reduction in paw volume at 2 mg/kg, ip administered from 11th day to 20th day by vernier caliper analysis; assay type: functional, organism-based
[18] = target: T1, 3',5'-cyclic-AMP phosphodiesterase 4B; assay: Inhibition of recombinant His-tagged PDE4B (unknown origin) expressed in Sf9 cells using cAMP as substrate preincubated for 15 mins followed by substrate addition and incubated for 1 hr by PDELight HTS cAMP phosphodiesterase Kit based luminometry
[19] = Selectivity for recombinant His-tagged PDE4B (unknown origin) expressed in Sf9 cells over PDE4D2 (unknown origin); settings: Homo sapiens

## OCCN(CCO)c1nc(N2CCCCC2)c2nc(N(CCO)CCO)nc(N3CCCCC3)c2n1
[1]
  inhibition: 3%
[2]
  inhibition: 13%
[3]
  inhibition: 48%
[4]
  inhibition: 55%
[5]
  inhibition: 88%

## COc1ccc(Cc2nc(O)c3c(C)nc([C@@H](CCCc4ccccc4)[C@@H](C)O)n3n2)cc1OC
[6]
  inhibition: 7%
[7]
  inhibition: 16%
[8]
  inhibition: 18%
[9]
  inhibition: 52%
[10]
  inhibition: 55%
[11]
  inhibition: 52%
[12]
  inhibition: 87%
[13]
  inhibition: 86%
[14]
  inhibition: 86%

## C=CCn1cc(-c2ncccc2C#N)c2cc(OC)ccc21
[15]
  IC50: 1.98 µM
[16]
  inhibition: > 75%

## COc1ccc2c(c1)c(-c1nc3ccccc3nc1Cl)cn2C(C)C
[15]
  IC50: 0.44 µM
[16]
  inhibition: > 75%
[17]
  IC50: 5.02 µM
Homo sapiens
  Ratio IC50: 11.4

## CN(Cc1cnc2nc(N)nc(N)c2n1)c1ccc(C(=O)N[C@@H](CCC(=O)O)C(=O)O)cc1
Rattus norvegicus
  inhibition: Active

## C=CCn1cc(-c2nc3ccccc3nc2Cl)c2ccccc21
[15]
  IC50: 4.67 µM
[16]
  inhibition: > 75%
[17]
  IC50: 22 µM
Homo sapiens
  Ratio IC50: 4.8

## Cc1cc2c(s1)N(Cc1cc3cc(Br)ccc3n1S(C)(=O)=O)c1ccccc1N=C2N1CCN(C)CC1
[18]
  IC50: 1.1 µM
[19]
  Selectivity ratio: > 10

## COC(=O)/C=C/c1[nH]c2ccccc2c1-c1nc2ccccc2nc1Cl
[15]
  IC50: 3.88 µM
[16]
  inhibition: > 75%

## CCOC(=O)/C=C/c1c(-c2nc3ccccc3nc2Cl)c2cc(OC)ccc2n1C(C)C
[15]
  IC50: 5.58 µM
[16]
  inhibition: > 75%
